# Source: ChEMBL document CHEMBL1201862, “PubChem BioAssay data set” (2004)
#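 Values below derive from 48-hour exposures of cells grown in 96-well plates, with endpoints linearly interpolated between the two concentrations bracketing the appropriate inhibition level. GI50 is the concentration that inhibits growth by half.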 Calls of active or inactive are those of the source. Rule as the data show it: active = GI50 up to about 1.1 µM and inactive = higher.
# Columns and labels:
# Assay in all cases: NCI-60 cell line screen, 48 h
# [1] = system: 786-0
# [2] = system: A498
# [3] = system: A549
# [4] = system: ACHN
# [5] = system: BT-549
# [6] = system: CAKI-1
# [7] = system: CCRF-CEM
# [8] = system: COLO 205
# [9] = system: DLD-1
# [10] = system: DMS-114
# [11] = system: DMS-273
# [12] = system: DU-145
# [13] = system: EKVX
# [14] = system: HCC 2998
# [15] = system: HCT-116
# [16] = system: HCT-15
# [17] = system: HL-60
# [18] = system: HOP-62
# [19] = system: HOP-92
# [20] = system: HT-29
# [21] = system: Hs-578T
# [22] = system: IGROV-1
# [23] = system: K562
# [24] = system: KM-20L2
# [25] = system: KM12
# [26] = system: LOX IMVI
# [27] = system: LXFL 529
# [28] = system: M14
# [29] = system: M19-MEL
# [30] = system: MCF7
# [31] = system: MDA-MB-231
# [32] = system: MDA-MB-435
# [33] = system: MDA-N
# [34] = system: MOLT-4
# [35] = system: Malme-3M
# [36] = system: NCI-H226
# [37] = system: NCI-H23
# [38] = system: NCI-H460
# [39] = system: NCI-H522
# [40] = system: NCI/ADR-RES
# [41] = system: OVCAR-3
# [42] = system: OVCAR-4
# [43] = system: OVCAR-5
# [44] = system: OVCAR-8
# [45] = system: PC-3
# [46] = system: RPMI-8226
# [47] = system: RXF 393
# [48] = system: RXF 631
# [49] = system: SF-268
# [50] = system: SF-295
# [51] = system: SF-539
# [52] = system: SK-MEL-28
# [53] = system: SK-MEL-2
# [54] = system: SK-MEL-5
# [55] = system: SK-OV-3
# [56] = system: SN12C
# [57] = system: SNB-19
# [58] = system: SNB-75
# [59] = system: SR
# [60] = system: SW-620
# [61] = system: T47D
# [62] = system: TK-10
# [63] = system: U-251
# [64] = system: UACC-257
# [65] = system: UACC-62
# [66] = system: UO-31
# [67] = system: XF498
structure (smiles),measurement,setting,value
COc1ccc(OC)c2c(=S)c3ccccc3[nH]c12,GI50,[1],> 91.8 µM (inactive)
same,GI50,[2],> 92.3 µM (inactive)
same,GI50,[3],> 100 µM (inactive)
same,GI50,[4],53 µM (inactive)
same,GI50,[5],> 100 µM (inactive)
same,GI50,[6],> 100 µM (inactive)
same,GI50,[7],35.3 µM (inactive)
same,GI50,[8],55.2 µM (inactive)
same,GI50,[9],> 100 µM (inactive)
same,GI50,[10],32 µM (inactive)
same,GI50,[11],> 82.8 µM (inactive)
same,GI50,[12],> 100 µM (inactive)
same,GI50,[13],> 90.2 µM (inactive)
same,GI50,[14],> 100 µM (inactive)
same,GI50,[15],64.6 µM (inactive)
same,GI50,[16],47.5 µM
same,GI50,[17],25.3 µM (inactive)
same,GI50,[18],> 100 µM (inactive)
same,GI50,[19],> 100 µM (inactive)
same,GI50,[20],64.6 µM (inactive)
same,GI50,[21],> 100 µM (inactive)
same,GI50,[22],> 96.6 µM (inactive)
same,GI50,[23],36.3 µM (inactive)
same,GI50,[24],> 100 µM (inactive)
same,GI50,[25],> 100 µM (inactive)
same,GI50,[26],46.8 µM (inactive)
same,GI50,[27],56 µM (inactive)
same,GI50,[28],> 100 µM (inactive)
same,GI50,[29],> 100 µM (inactive)
same,GI50,[30],36.7 µM (inactive)
same,GI50,[31],> 100 µM (inactive)
same,GI50,[32],71.3 µM (inactive)
same,GI50,[33],> 100 µM (inactive)
same,GI50,[34],39.4 µM (inactive)
same,GI50,[35],84.9 µM (inactive)
same,GI50,[36],> 21.5 µM (inactive)
same,GI50,[37],99.8 µM (inactive)
same,GI50,[38],> 63 µM (inactive)
same,GI50,[39],49.1 µM (inactive)
same,GI50,[40],> 100 µM (inactive)
same,GI50,[41],> 100 µM (inactive)
same,GI50,[42],> 100 µM (inactive)
same,GI50,[43],> 94.8 µM (inactive)
same,GI50,[44],> 73.5 µM (inactive)
same,GI50,[45],78.5 µM (inactive)
same,GI50,[46],37.9 µM (inactive)
same,GI50,[47],54.6 µM (inactive)
same,GI50,[48],41.5 µM (inactive)
same,GI50,[49],> 86.1 µM (inactive)
same,GI50,[50],92.3 µM (inactive)
same,GI50,[51],> 79.1 µM (inactive)
same,GI50,[52],> 100 µM (inactive)
same,GI50,[53],> 100 µM (inactive)
same,GI50,[54],22.2 µM (inactive)
same,GI50,[55],> 100 µM (inactive)
same,GI50,[56],> 100 µM (inactive)
same,GI50,[57],> 100 µM (inactive)
same,GI50,[58],> 79.6 µM (inactive)
same,GI50,[59],49.5 µM (inactive)
same,GI50,[60],> 75.3 µM (inactive)
same,GI50,[61],> 100 µM (inactive)
same,GI50,[62],> 67.8 µM (inactive)
same,GI50,[63],> 87.3 µM (inactive)
same,GI50,[64],> 73.8 µM (inactive)
same,GI50,[65],60.1 µM (inactive)
same,GI50,[66],39.4 µM (inactive)
same,GI50,[67],> 100 µM (inactive)
